{"source": "paper PMC9671377", "about": "“Label-free affinity screening, design and synthesis of inhibitors targeting the Mycobacterium tuberculosis L-alanine dehydrogenase” (PLOS ONE, 2022)", "key": {"[1]": {"biological_target": "T1, Mtb L-alanine dehydrogenase (AlaDH, Rv2780) (Mycobacterium tuberculosis, UniProt P9WQB1)", "T1 sequence (P9WQB1 whole entry, looked up)": "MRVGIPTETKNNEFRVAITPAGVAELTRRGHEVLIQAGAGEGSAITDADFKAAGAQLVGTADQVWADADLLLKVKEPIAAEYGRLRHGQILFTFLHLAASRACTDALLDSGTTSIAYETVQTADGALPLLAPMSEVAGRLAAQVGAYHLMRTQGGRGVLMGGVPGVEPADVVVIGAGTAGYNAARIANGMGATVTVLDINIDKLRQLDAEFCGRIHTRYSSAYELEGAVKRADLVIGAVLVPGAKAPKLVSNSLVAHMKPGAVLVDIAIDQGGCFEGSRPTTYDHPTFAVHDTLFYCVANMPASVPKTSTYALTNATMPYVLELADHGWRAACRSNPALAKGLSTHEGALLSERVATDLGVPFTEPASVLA", "format": "binding", "settings": "for Eluted AlaDH compared to N6-methyl ado / Integrated band volume / Ratio against N6-methyl ado / Eluted protein amount relative to N6-methyl ado: SDS gel densitometry; for Integrated band volume / Ratio against N6-methyl ado: Fig 3a"}, "[2]": {"biological_target": "Mycobacterium tuberculosis L-alanine dehydrogenase (Mycobacterium tuberculosis, UniProt P9WQB1)", "sequence (P9WQB1 whole entry, looked up)": "as above", "assay": "biochemical", "format": "biochemical", "settings": "for Ki: competitive inhibition mode vs NAD, value (S.D.) in table"}, "[3]": {"test_system": "Mtb aldehyde dehydrogenase (Rv0223c, AldDH)", "format": "biochemical, Mycobacterium tuberculosis", "settings": "1 mM inhibitor, 1 mM NAD, 10 mM propionaldehyde"}, "human malate DH 2": {"biological_target": "T2, human malate DH 2 (Homo sapiens, UniProt P40926)", "T2 sequence (P40926 25-338)": "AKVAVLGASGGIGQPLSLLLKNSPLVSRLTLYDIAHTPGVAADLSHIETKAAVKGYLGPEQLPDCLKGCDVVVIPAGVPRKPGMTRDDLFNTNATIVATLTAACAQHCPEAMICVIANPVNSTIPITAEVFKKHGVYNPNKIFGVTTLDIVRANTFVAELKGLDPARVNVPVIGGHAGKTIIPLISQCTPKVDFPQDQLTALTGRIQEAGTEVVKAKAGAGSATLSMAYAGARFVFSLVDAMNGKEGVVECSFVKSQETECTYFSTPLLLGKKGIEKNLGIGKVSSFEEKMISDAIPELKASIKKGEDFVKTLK", "assay": "Activity assay against human malate DH 2", "format": "biochemical"}, "[4]": {"biological_target": "Mtb L-alanine dehydrogenase (AlaDH) (Mycobacterium tuberculosis, UniProt P9WQB1)", "sequence (P9WQB1 whole entry, looked up)": "as the sequence (P9WQB1 whole entry, looked up) above", "format": "biochemical"}, "[5]": {"test_system": "Mycobacterium tuberculosis H37Rv cells", "assay": "Minimum inhibitory concentration assay (microfluidic agarose channel chip)", "format": "cell-based"}, "[6]": {"test_system": "Mtb in murine primary bone marrow-derived macrophages (BMDMs)", "format": "cell-based, Mycobacterium tuberculosis H37Rv", "settings": "500 μM, 3 days"}, "[7]": {"biological_target": "T1, Mtb L-alanine dehydrogenase (AlaDH, Rv2780)", "settings": "cited from earlier work"}, "[8]": {"settings": "compound at 1 mM, SDS-PAGE of eluate"}}, "note": "Where “and” joins values, the source holds several entries; their conditions need not be identical. Identical values can stand only once. Like-named read-outs stand apart in the source and are kept apart here."}
{"molecule": "CCCNc1ncnc2c1ncn2[C@@H]1O[C@H](CO)[C@@H](O)[C@H]1O", "note": "[N6-propyl adenosine]", "values": [{"measurement": "melting point", "result": "162 to 165.4", "unit": "°C"}, {"measurement": "Eluted AlaDH compared to N6-methyl ado", "setting": "[1]", "result": 3.05, "unit": "fold"}, {"measurement": "Integrated band volume", "setting": "[1]", "result": "126,378"}, {"measurement": "Ratio against N6-methyl ado", "setting": "[1]", "result": 3.05}, {"measurement": "Ki", "setting": "[2]", "result": "110 µM and 113 µM"}]}
{"molecule": "CC(C)C(=O)Nc1ncnc2c1ncn2[C@@H]1O[C@H](CO)[C@@H](O)[C@H]1O", "note": "[N6-isobutyoyl adenosine]", "values": [{"measurement": "Eluted protein amount relative to N6-methyl ado", "setting": "[1]", "result": 70, "unit": "%"}, {"measurement": "Integrated band volume", "setting": "[1]", "result": "29,087"}, {"measurement": "Ratio against N6-methyl ado", "setting": "[1]", "result": 0.70}, {"measurement": "Ki", "setting": "[2]", "result": 3710, "unit": "µM"}]}
{"molecule": "CCNc1ncnc2c1ncn2[C@@H]1O[C@H](CO)[C@@H](O)[C@H]1O", "note": "[N6-ethyl adenosine]", "values": [{"measurement": "melting point", "result": "197.1 to 198.4", "unit": "°C"}, {"measurement": "Eluted AlaDH compared to N6-methyl ado", "setting": "[1]", "result": 2.12, "unit": "fold"}, {"measurement": "Integrated band volume", "setting": "[1]", "result": "87,674"}, {"measurement": "Ratio against N6-methyl ado", "setting": "[1]", "result": 2.12}, {"measurement": "Ki", "setting": "[2]", "result": "520 µM and 521 µM"}]}
{"molecule": "CC(C)CNc1ncnc2c1ncn2[C@@H]1O[C@H](CO)[C@@H](O)[C@H]1O", "note": "[N6-isobutyl adenosine]", "values": [{"measurement": "Inhibition of AldDH activity", "setting": "[3]", "result": "no inhibition"}, {"measurement": "Inhibition of human malate DH 2 activity", "setting": "human malate DH 2", "result": "no noticeable inhibition"}, {"measurement": "Integrated band volume", "setting": "[1]", "result": "143,252"}, {"measurement": "Ratio against N6-methyl ado", "setting": "[1]", "result": 3.45}, {"measurement": "Eluted AlaDH compared to N6-methyl ado", "setting": "[1]; listed as N6-isobutyl ado", "result": "3.45 fold and ~ 3.5 fold"}, {"measurement": "Ki", "setting": "[2]", "result": "80 µM and 79 µM"}, {"measurement": "vi of wild-type AlaDH after adding compound", "setting": "[4]; […], without compound vi 1.922 x10^-3", "result": "0.734 x10^-3 [NADH]OD340/min"}]}
{"molecule": "Cc1nc(N)c2ncn([C@@H]3O[C@H](CO)[C@@H](O)[C@H]3O)c2n1", "note": "[D28, C2-methyl adenosine]", "values": [{"measurement": "Elution of AlaDH from F3GA dye resin (displacement of the dye) in DLAC", "setting": "[1]", "result": "did not show displacement"}, {"measurement": "Initial velocity (vi) of the AlaDH reaction with compound", "setting": "[4]", "result": "1.769 x10^-3 [NADH]OD340/min"}, {"measurement": "Reduction of initial velocity (vi) of the AlaDH reaction", "setting": "[4]", "result": 4, "unit": "%"}]}
{"molecule": "CNc1ncnc2c1ncn2[C@@H]1O[C@H](CO)[C@@H](O)[C@H]1O", "note": "[D30, N6-methyl adenosine]", "values": [{"measurement": "Inhibition of AldDH activity", "setting": "[3]", "result": "none"}, {"measurement": "Inhibition of human malate DH 2 activity", "setting": "human malate DH 2", "result": "no noticeable inhibition"}, {"measurement": "Integrated band volume", "setting": "[1]", "result": "41,418"}, {"measurement": "Ratio against N6-methyl ado", "setting": "[1]", "result": 1}, {"measurement": "Elution of AlaDH from F3GA dye resin (displacement of the dye) in DLAC", "setting": "[1]; [8]", "result": "displaced the F3GA dye from AlaDH"}, {"measurement": "MIC", "setting": "[5]", "result": "~10", "unit": "µg/mL"}, {"measurement": "Ki", "setting": "[2]", "result": "860 µM and 861 µM"}, {"measurement": "Reduction of initial velocity (vi) of the AlaDH reaction", "setting": "[4]; 1 mM inhibitor, 1 mM NAD, 17 mM L-alanine", "result": 33, "unit": "%"}, {"measurement": "Initial velocity (vi) of the AlaDH reaction with compound", "setting": "[4]; no inhibition vi 1.842x10^-3, 1 mM inhibitor", "result": "1.231x10^-3 [NADH]OD340/min"}, {"measurement": "Intracellular growth of Mtb in BMDMs", "setting": "[6]", "result": "significantly decreased"}]}
{"molecule": "Nc1ncnc2c1ncn2[C@@H]1O[C@H](COP(=O)(O)OP(=O)(O)OP(=O)(O)O)[C@@H](O)[C@H]1O", "note": "[ATP, reference compound]", "values": [{"measurement": "Elution of AlaDH from F3GA dye resin (displacement of the dye) in DLAC", "setting": "[1]; [8]", "result": "eluted the target AlaDH enzyme"}, {"measurement": "Binding in DLAC assay (previous data)", "setting": "[7]", "result": "bound strongly"}]}
{"molecule": "CC(=O)Nc1ncnc2c1ncn2[C@@H]1O[C@H](CO)[C@@H](O)[C@H]1O", "note": "[N6-acetyl ado]", "values": [{"measurement": "Eluted protein amount relative to N6-methyl ado", "setting": "[1]", "result": 12, "unit": "%"}, {"measurement": "Integrated band volume", "setting": "[1]", "result": "5,015"}, {"measurement": "Ratio against N6-methyl ado", "setting": "[1]", "result": 0.12}, {"measurement": "Inhibitory effect on AlaDH activity", "setting": "[2]", "result": "did not reveal any inhibitory effect"}]}
{"molecule": "NC(=O)C1=CN([C@@H]2O[C@H](COP(=O)(O)OP(=O)(O)OC[C@H]3O[C@@H](n4cnc5c(N)ncnc54)[C@H](O)[C@@H]3O)[C@@H](O)[C@H]2O)C=CC1", "note": "[NADH]", "values": [{"measurement": "Binding in DLAC assay (previous data)", "setting": "[7]", "result": "bound strongly"}]}
